According to PubChem BioAssay AID248 (DTP/NCI, 2004):
Toxic doses and inconclusive results are not listed. Peptide text beside a SMILES is read from it. * marks the point of attachment. Cbz = O=C(OCc1ccccc1)*; Bn = c1ccc(C*)cc1; For = O=C*

Tested on: L1210 leukemia ip in BDF1 mice, survival T/C
Test: NCI In Vivo Anticancer Drug Screen. Data for tumor model L1210 Leukemia (intraperitoneal) in B6D2F1 (BDF1) mice
Conditions: endpoint: mean survival time, higher = longer survival
How it was run: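 Antitumor effect is assessed in tumor-bearing animals. Survival in the compound arm is compared with a vehicle-dosed control arm and expressed as their quotient.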

[1] = dose: 3.12 mg/kg/injection, schedule: Q01DX009 (ip), vehicle: acetone
[2] = dose: 6.25 mg/kg/injection, schedule: Q01DX009 (ip), vehicle: acetone
[3] = dose: 10.0 mg/kg/injection, schedule: Q01DX001 (ip), vehicle: saline
[4] = dose: 100.0 mg/kg/injection, schedule: Q01DX009 (ip), vehicle: saline with Tween-80
[5] = dose: 100.0 mg/kg/injection, schedule: Q04DX003 (ip), vehicle: saline with Tween-80
[6] = dose: 200.0 mg/kg/injection, schedule: Q01DX009 (ip), vehicle: saline with Tween-80
[7] = dose: 200.0 mg/kg/injection, schedule: Q04DX003 (ip), vehicle: saline with Tween-80
[8] = dose: 400.0 mg/kg/injection, schedule: Q01DX009 (ip), vehicle: saline with Tween-80
[9] = dose: 400.0 mg/kg/injection, schedule: Q04DX003 (ip), vehicle: saline with Tween-80
[10] = dose: 100.0 mg/kg/injection, schedule: Q01DX001 (ip), vehicle: saline
[11] = dose: 200.0 mg/kg/injection, schedule: Q01DX001 (ip), vehicle: saline
[12] = dose: 400.0 mg/kg/injection, schedule: Q01DX001 (ip), vehicle: saline
[13] = dose: 100.0 mg/kg/injection, schedule: Q04DX003 (ip), vehicle: saline
[14] = dose: 200.0 mg/kg/injection, schedule: Q04DX003 (ip), vehicle: saline
[15] = dose: 400.0 mg/kg/injection, schedule: Q04DX003 (ip), vehicle: saline

## O=C1NC(=O)c2cccc3cccc1c23
dose: 100.0 mg/kg/injection, schedule: Q01DX001 (ip), vehicle: saline with Tween-80
  T/C: 98 % of control
dose: 200.0 mg/kg/injection, schedule: Q01DX001 (ip), vehicle: saline with Tween-80
  T/C: 102 % of control
dose: 400.0 mg/kg/injection, schedule: Q01DX001 (ip), vehicle: saline with Tween-80
  T/C: 102 % of control

## NOCc1csc(NC(=O)Nc2ccccc2)n1
dose: 18.8 mg/kg/injection, schedule: Q01DX009 (ip), vehicle: saline with Tween-80
  T/C: 95 % of control
dose: 37.5 mg/kg/injection, schedule: Q01DX009 (ip), vehicle: saline with Tween-80
  T/C: 103 % of control
dose: 75.0 mg/kg/injection, schedule: Q01DX009 (ip), vehicle: saline with Tween-80
  T/C: 105 % of control

## Nc1nc(N)c2cc(CCc3ccc(C(=O)NC(CCC(=O)O)C(=O)O)cc3)ccc2n1 (stereo unspecified)
dose: 39.0 micrograms/kg/injection, schedule: Q01DX009 (ip), vehicle: Klucel (hydroxypropylcellulose) (HPC)
  T/C: 111 % of control
dose: 78.0 micrograms/kg/injection, schedule: Q01DX009 (ip), vehicle: Klucel (hydroxypropylcellulose) (HPC)
  T/C: 117 % of control
dose: 156.0 micrograms/kg/injection, schedule: Q01DX009 (ip), vehicle: Klucel (hydroxypropylcellulose) (HPC)
  T/C: 117 % of control
dose: 625.0 micrograms/kg/injection, schedule: Q01DX009 (ip), vehicle: Klucel (hydroxypropylcellulose) (HPC)
  T/C: 170 % of control

## Cc1cc[n+]2cc3ccc4ccccc4c3c(C)c2c1
dose: 2.0 mg/kg/injection, schedule: Q01DX015 (ip), vehicle: saline
  T/C: 102 % of control
[1]
  T/C: 106 % of control
dose: 4.0 mg/kg/injection, schedule: Q01DX015 (ip), vehicle: saline
  T/C: 95 % of control
[2]
  T/C: 101 % of control
dose: 8.0 mg/kg/injection, schedule: Q01DX015 (ip), vehicle: saline
  T/C: 101 % of control
dose: 12.5 mg/kg/injection, schedule: Q04DX003 (ip), vehicle: acetone
  T/C: 106 % of control
dose: 16.0 mg/kg/injection, schedule: Q01DX015 (ip), vehicle: saline
  T/C: 118 % of control

## CCc1c(C)[nH]c2c1C(=O)CCC2
[3]
  T/C: 98 % of control
dose: 20.0 mg/kg/injection, schedule: Q01DX001 (ip), vehicle: saline
  T/C: 100 % of control
dose: 40.0 mg/kg/injection, schedule: Q01DX001 (ip), vehicle: saline
  T/C: 105 % of control

## CCOC(=O)C(=Cc1c[nH]c2ccc(Br)cc12)C(=O)OCC
[4]
  T/C: 98 % of control
[5]
  T/C: 89 % of control
[6]
  T/C: 104 % of control
[7]
  T/C: 96 % of control
[8]
  T/C: 101 % of control
[9]
  T/C: 91 % of control

## CCN(CC)/N=C/CC(C)Nc1ccnc2cc(Cl)ccc12 (stereo unspecified)
[1]
  T/C: 92 % of control
[2]
  T/C: 97 % of control
dose: 12.5 mg/kg/injection, schedule: Q04DX003 (ip), vehicle: saline
  T/C: 93 % of control

## N#CCCNC(=O)N(CCC#N)N=O
dose: 3.12 mg/kg/injection, schedule: Q01DX Z (ip), vehicle: carboxymethylcellulose (CMC)
  T/C: 100 % of control
dose: 6.25 mg/kg/injection, schedule: Q01DX Z (ip), vehicle: carboxymethylcellulose (CMC)
  T/C: 102 % of control
dose: 12.5 mg/kg/injection, schedule: Q01DX Z (ip), vehicle: carboxymethylcellulose (CMC)
  T/C: 103 % of control
dose: 25.0 mg/kg/injection, schedule: Q01DX Z (ip), vehicle: carboxymethylcellulose (CMC)
  T/C: 118 % of control
dose: 75.0 mg/kg/injection, schedule: Q01DX Z (ip), vehicle: carboxymethylcellulose (CMC)
  T/C: 153 % of control
dose: 100.0 mg/kg/injection, schedule: Q01DX Z (ip), vehicle: carboxymethylcellulose (CMC)
  T/C: 118 % of control
dose: 150.0 mg/kg/injection, schedule: Q01DX Z (ip), vehicle: carboxymethylcellulose (CMC)
  T/C: 155 % of control
dose: 200.0 mg/kg/injection, schedule: Q01DX Z (ip), vehicle: carboxymethylcellulose (CMC)
  T/C: 116 % of control

## COc1ccc(OC)c(/C=C/C=O)c1
[10]
  T/C: 110 % of control
[11]
  T/C: 96 % of control
[12]
  T/C: 98 % of control

## C(#CCOc1ccccc1)COc1ccccc1
[5]
  T/C: 97 % of control
[7]
  T/C: 97 % of control
[9]
  T/C: 97 % of control

## COC(=O)C(CC(C)C)NC(=O)C(Cc1ccc(O)cc1)NC=O (stereo not drawn) (For-Tyr-Leu-OMe; configuration not given here)
[4]
  T/C: 94 % of control
[5]
  T/C: 110 % of control
[6]
  T/C: 95 % of control
[7]
  T/C: 102 % of control
[8]
  T/C: 92 % of control
[9]
  T/C: 96 % of control

## CC(=O)Nc1cc(N(CCOS(C)(=O)=O)CCOS(C)(=O)=O)ccc1N=O
dose: 0.05 mg/kg/injection, schedule: Q01DX015 (ip), vehicle: saline
  T/C: 114 % of control
dose: 0.1 mg/kg/injection, schedule: Q01DX015 (ip), vehicle: saline
  T/C: 123 % of control
dose: 0.2 mg/kg/injection, schedule: Q01DX015 (ip), vehicle: saline
  T/C: 114 % of control
dose: 0.4 mg/kg/injection, schedule: Q01DX015 (ip), vehicle: saline
  T/C: 114 % of control
dose: 1.0 mg/kg/injection, schedule: Q01DX015 (ip), vehicle: saline
  T/C: 121 % of control
dose: 1.7 mg/kg/injection, schedule: Q01DX015 (ip), vehicle: saline
  T/C: 119 % of control
dose: 7.5 mg/kg/injection, schedule: Q01DX001 (ip), vehicle: saline
  T/C: 113 % of control
[3]
  T/C: 124 % of control

## COc1ccc(-n2c(=O)c(N=Nc3ccccc3OC)c(O)n(-c3ccccc3C)c2=S)cc1
dose: 100.0 mg/kg/injection, schedule: Q01DX001 (ip), vehicle: Klucel (hydroxypropylcellulose) (HPC)
  T/C: 98 % of control
dose: 200.0 mg/kg/injection, schedule: Q01DX001 (ip), vehicle: Klucel (hydroxypropylcellulose) (HPC)
  T/C: 101 % of control

## Cc1ccc(S(=O)(=O)OCC(OS(=O)(=O)c2ccc(C)cc2)C2OCOC(COS(=O)(=O)c3ccc(C)cc3)C2OS(=O)(=O)c2ccc(C)cc2)cc1 (stereo unspecified)
[5]
  T/C: 94 % of control
[7]
  T/C: 87 % of control
[9]
  T/C: 100 % of control

## CCOc1ccc2c(c1)C(C)=CC(C)(C)N2
dose: 100.0 mg/kg/injection, schedule: Q04DX003 (ip), vehicle: Klucel (hydroxypropylcellulose) (HPC)
  T/C: 93 % of control
dose: 200.0 mg/kg/injection, schedule: Q04DX003 (ip), vehicle: Klucel (hydroxypropylcellulose) (HPC)
  T/C: 101 % of control
dose: 400.0 mg/kg/injection, schedule: Q04DX003 (ip), vehicle: Klucel (hydroxypropylcellulose) (HPC)
  T/C: 121 % of control

## CCOC(=O)C1CCCNC1=O (stereo unspecified)
[13]
  T/C: 105 % of control
[14]
  T/C: 116 % of control
[15]
  T/C: 108 % of control

## Oc1ccc(Nc2ccccc2)cc1
[10]
  T/C: 92 % of control
[13]
  T/C: 101 % of control
[11]
  T/C: 110 % of control
[14]
  T/C: 101 % of control
[12]
  T/C: 105 % of control
[15]
  T/C: 95 % of control

## O=C(O)CCC(=O)O.[Ag]
dose: 12.5 mg/kg/injection, schedule: Q04DX003 (ip), vehicle: saline with Tween-80
  T/C: 93 % of control
dose: 25.0 mg/kg/injection, schedule: Q01DX009 (ip), vehicle: acetone
  T/C: 86 % of control
dose: 25.0 mg/kg/injection, schedule: Q04DX003 (ip), vehicle: saline with Tween-80
  T/C: 95 % of control

## CC(C)C(NC(=O)C(CSCc1ccccc1)NC(=O)OCc1ccccc1)C(N)=O (stereo unspecified) (Cbz-Cys(Bn)-Val-NH2; configuration not given here)
dose: 100.0 mg/kg/injection, schedule: Q01DX009 (ip), vehicle: Klucel (hydroxypropylcellulose) (HPC)
  T/C: 87 % of control
dose: 200.0 mg/kg/injection, schedule: Q01DX009 (ip), vehicle: Klucel (hydroxypropylcellulose) (HPC)
  T/C: 89 % of control

## O=c1[nH]c(C(F)(F)F)c(Cc2ccccc2)c(=O)[nH]1
dose: 100.0 mg/kg/injection, schedule: Q01DX001 (ip), vehicle: gum acacia
  T/C: 95 % of control
dose: 200.0 mg/kg/injection, schedule: Q01DX001 (ip), vehicle: gum acacia
  T/C: 107 % of control
